The target in this series is T1, STE2 receptor (Saccharomyces cerevisiae, UniProt D6VTK4).
T1 construct: expressed in transfected cells; host or cells: yeast strain ARY84 (Δste2::ura3, plasmid pRS416(URA3)-STE2)
T1 sequence (D6VTK4 1-431): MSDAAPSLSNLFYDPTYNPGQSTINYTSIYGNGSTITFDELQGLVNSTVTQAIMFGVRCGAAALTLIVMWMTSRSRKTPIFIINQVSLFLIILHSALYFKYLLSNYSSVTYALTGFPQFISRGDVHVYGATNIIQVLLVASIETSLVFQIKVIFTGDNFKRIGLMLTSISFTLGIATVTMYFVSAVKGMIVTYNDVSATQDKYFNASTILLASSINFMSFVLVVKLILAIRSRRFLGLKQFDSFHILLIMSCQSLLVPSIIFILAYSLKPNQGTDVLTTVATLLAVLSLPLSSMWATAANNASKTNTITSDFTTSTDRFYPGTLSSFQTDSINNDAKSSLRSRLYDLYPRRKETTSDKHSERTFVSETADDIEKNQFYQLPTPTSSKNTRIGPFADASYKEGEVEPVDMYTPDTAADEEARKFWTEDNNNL
Briefly: Bead tether modification by yeast acid phosphatase, FACScan of 3E7-coated beads. The series is classed as cell-based. As to conditions: 500 nM alpha factor, beads exposed 18 hr, 200 nM AF12402. From the text: This system employs yeast ARI 84 reporter cells bearing an STE2 receptor and containing a reporter construct in which a pho3 gene is linked to a FUS1 promoter. Acid phosphatase expressed by the yeast is used to dephosphorylate the substrate phospho-YGGFL-linker-biotin. (SEQ ID NO:25) As a result of dephosphorylation, the substrate can bind to a 3E7 antibody tether. The biotinylated portion of modified tethers is stained using a PE- or alkaline-phosphatase-conjugated streptavidin. Complexes with stained tethers are sorted by FACS™.
ARY84 culture from a fresh, 4-10 day old patch was grown in 3 ml SC minimal media minus Trp, Ura, Leu, pH adjusted to 6.15 using MES buffer 200 mM final at @30C overnight in a tube rotator. At A600, the growing culture was diluted to 0.1 A600 in duplicate in pH 6.15 SC media minus Trp, Ura, Leu. One diluted culture was induced by addition of alpha factor to 500 nM final concentration. 0.1 ml of the appropriate diluted induced or uninduced culture was added to wells of a BSA-blocked 96-well microtitre plate. […]
A desired amount of monobeads (at about 1×10^7 beads/ml) was washed once in 0.5 ml methanol, and twice in 1 ml PBS, pH 7.5. […] The density of beads was determined and about 1×10^5 beads were added to each well (after washing with PBS 0.1% BSA to remove the azide). […]
Staining was analyzed by running the beads through a Becton Dickinson FACScan™ machine. […]

Here are results for one substance from US6309842A, “Use of modified tethers in screening compound libraries” (Glaxo Wellcome Inc., priority 1997, dated 2001).

Take α-factor: the “FACScan shift of beads, induced vs not induced yeast” value is reported as 10 fold.
